We go through 35 compounds from US7084137B2, “Thiazines and thiazoles as agents for protecting materials” (Bayer Aktiengesellschaft, priority 2001, dated 2006).

The test system of one test is Penicillium brevicaule. The test is described as follows: Minimum inhibitory concentration (MIC) against fungi on malt extract agar. The class given is cell-based. The note with it: 2 weeks of incubation at 28° C., 60 to 70% relative atmospheric humidity; for MIC: Penicillium, 336 h. As for the experimental part:
(§1) The active compounds according to the invention are in each case added, in concentrations of from 0.1 mg/l to 5000 mg/l, to an agar which is prepared using malt extract. The MIC is determined after 2 weeks of incubation at 28° C. and 60 to 70% relative atmospheric humidity.

The subject of a further test is Chaetomium globosum. The test is described as above. It counts as cell-based. The following applies: 2 weeks of incubation at 28° C., 60 to 70% relative atmospheric humidity; for MIC: Chaetomium globosum, 336 h. As for the experimental part:
as §1

In another test the test system is Aspergillus niger. The test is described as above. The class given is cell-based. The note with it: 2 weeks of incubation at 28° C., 60 to 70% relative atmospheric humidity; for MIC: Aspergillus niger, 336 h. As for the experimental part:
as §1

A further test relates to Bacillus subtilis. Put plainly: Minimum inhibitory concentration (MIC) against bacteria on nutrient agar. The class given is cell-based. The note with it: 3 days of incubation at 28° C., 60 to 70% relative atmospheric humidity; for MIC: Bacillus subtilis, 72 h. As for the experimental part:
The active compounds according to the invention are in each case added, in concentrations of from 0.1 mg/ml to 5000 mg/ml, to a chemically defined nutrient agar. The MIC is determined after 3 days of incubation at 28° C. and 60 to 70% relative atmospheric humidity.

Test [1] has as its system mould fungi (Alternaria tenius, Aspergillus flavus, Aspergillus niger, Aspergillus ustus, Cindosporum herbarum, Paecilomyces variotii, Penicillium citrium …). The test is described as follows: Test of dispersion coatings for resistance to mould. The following applies: coatings according to recipe A containing 1.5% (based on solids) of compound; even after leaching out and wind tunnel exposure; 2–3 weeks storage. As for the experimental part: To test dispersion coatings for resistance to mould, the following procedure is adopted:
The paint to be tested is applied to both sides of a suitable base. To obtain results which are close to practice, some of the test specimens are leached out with running water (24 h, 20° C.) before the test for mould resistance; others are treated with a current of warm fresh air (7 days, 40° C.).
The samples prepared in this way are then placed on an agar nutrient medium, and both samples and nutrient medium are contaminated with fungal spores. After 2–3 weeks storage (29±1° C., 80–90% rel. atmospheric humidity), the samples are compared.
The coating is considered to be permanently mould-resistant if the sample remains free from fungus or at most a slightly border infestation can be detected.
For the contamination, fungal spores of the following mould fungi are used, which are known as paint destroyers or are frequently encountered on coatings: • Alternaria tenius • Aspergillus flavus • Aspergillus niger • Aspergillus ustus • Cindosporum herbarum • Paecilomyces variotii • Penicillium citrium • Aureobasidium pullulans • Stachybotrys chartarum
Recipe A: Exterior dispersion paint based on Acroal 290 D (styrene acrylate)

In brackets after ≈: the same amount, converted by molar mass.

As a reminder, the MIC is the smallest concentration in the dilution series that meets the test's criterion for growth inhibition. For `Fc1ccc(SC2=NCCCS2)cc1` [CAS No. 73122-42-6, 2-[(4-fluorophenyl)sulfanyl]-5,6-dihydro-4H-1,3-thiazine], the MIC against Penicillium brevicaule is less than 50 µg/mL; against Chaetomium globosum it was less than 100 µg/mL; in the test on Aspergillus niger, 100 µg/mL (≈ 440 µM).

For `Cc1cccc(SC2=NCCCS2)c1` [CAS No. 73122-45-9, 2-[(3-methylphenyl)sulfanyl]-5,6-dihydro4H-1,3-thiazine], the values for the MIC against Penicillium brevicaule, in the test with Chaetomium globosum and in the test on Aspergillus niger were less than 100 µg/mL, less than 100 µg/mL and less than 200 µg/mL, respectively.

For `COc1ccc(SC2=NCCCS2)cc1OC` [Example 42], in the test with Penicillium brevicaule, the “Minimum inhibitory concentration, Penicillium brevicaule” value is reported as less than 200 ppm. Further, in the test on Chaetomium globosum, the “Minimum inhibitory concentration, Chaetomium globosum” value worked out at 100 ppm. For the same compound, the “Minimum inhibitory concentration, Aspergillus niger” value with Aspergillus niger is given as 500 ppm.

Consider `c1ccc(CSC2=NCCCS2)cc1` [Example 22], for which the “Minimum inhibitory concentration, Bacillus subtilis” value in the test on Bacillus subtilis is on record as 100 ppm.

For `CN(C)c1ccc(SC2=NCCCS2)cc1` [CAS No. 73122-51-7, 4-(5,6-dihydro-4H-1,3-thiazin-2-ylsulfanyl)-N,N-dimethylaniline], the MIC was 100 µg/mL (≈ 396 µM) in the test on Penicillium brevicaule, less than 100 µg/mL in the test with Chaetomium globosum and 200 µg/mL (≈ 792 µM) against Aspergillus niger.

Turning to `c1ccc(Oc2ccc(SC3=NCCCS3)cc2)cc1` [Example 45], the “Minimum inhibitory concentration, Penicillium brevicaule” value in the test with Penicillium brevicaule turned out to be 100 ppm. Also, in the test on Chaetomium globosum, the “Minimum inhibitory concentration, Chaetomium globosum” value is less than 100 ppm.

As to `Cc1cccc(C)c1SC1=NCCCS1` [Example 37], the “Minimum inhibitory concentration, Penicillium brevicaule” value in the test with Penicillium brevicaule stood at 400 ppm. In the test with Chaetomium globosum, the “Minimum inhibitory concentration, Chaetomium globosum” value is recorded as less than 200 ppm.

`C=CCSC1=NCCS1` [CAS No. 3571-74-2, 2-[allylsulfanyl]-4,5-dihydro-1,3-thiazole]: in the test with Bacillus subtilis, the MIC turned out to be 200 µg/mL (≈ 1260 µM).

Turning to `Clc1cccc(SC2=NCCCS2)c1` [CAS No. 73122-33-5, 2-[(3-chlorophenyl)sulfanyl]-5,6-dihydro4H-1,3-thiazine], the MIC against Penicillium brevicaule is less than 200 µg/mL; in the test with Chaetomium globosum, less than 200 µg/mL; against Aspergillus niger it was 200 µg/mL (≈ 820 µM).

Consider `FC(F)(F)c1ccc(SC2=NCCCS2)cc1` [Example 40], for which, in the test with Penicillium brevicaule, the “Minimum inhibitory concentration, Penicillium brevicaule” value is recorded as less than 100 ppm. In addition, the “Minimum inhibitory concentration, Chaetomium globosum” value in the test on Chaetomium globosum is reported as less than 100 ppm. For the same compound, in the test with Aspergillus niger, the “Minimum inhibitory concentration, Aspergillus niger” value was less than 250 ppm.

For the compound `Clc1ccc(SC2=NCCCS2)cc1Cl` [CAS No. 73122-34-6, 2-[(3,4-dichlorophenyl)sulfanyl]-5,6-dihydro-4H-1,3-thiazine], the MIC against Penicillium brevicaule was less than 100 µg/mL; with Chaetomium globosum it was less than 100 µg/mL; in the test with Aspergillus niger, 400 µg/mL (≈ 1440 µM).

`Clc1cc(Cl)cc(SC2=NCCCS2)c1` [CAS No. 73122-37-9, 2-[(3,5-dichlorophenyl)sulfanyl]-5,6-dihydro-4H-1,3-thiazine] gave an MIC against Bacillus subtilis of 100 µg/mL (≈ 359 µM).

For the compound `COC(=O)C1CSC(Sc2cccc(Cl)c2)=N1` (stereo not drawn) [Example 18], the “Minimum inhibitory concentration, Chaetomium globosum” value with Chaetomium globosum was 200 ppm.

As for `Clc1ccccc1SC1=NCCCS1` [CAS No. 55545-14-7, 2-[(2-chlorophenyl)sulfanyl]-5,6-dihydro-4H-1,3-thiazine], the MIC against Penicillium brevicaule, against Chaetomium globosum and with Aspergillus niger was less than 200 µg/mL each time.

For `COc1ccccc1SC1=NCCCS1` [Example 36], the “Minimum inhibitory concentration, Penicillium brevicaule” value in the test on Penicillium brevicaule is recorded as 100 ppm. For the same compound, in the test on Chaetomium globosum, the “Minimum inhibitory concentration, Chaetomium globosum” value was found to be 100 ppm. Besides, the “Minimum inhibitory concentration, Aspergillus niger” value in the test on Aspergillus niger worked out at 100 ppm.

In the case of `Brc1ccc(SC2=NCCCS2)cc1` [CAS No. 73122-41-5, 2-[(4-bromophenyl)sulfanyl]-5,6-dihydro-4H-1,3-thiazine], the MIC in the test with Penicillium brevicaule is less than 200 µg/mL; against Chaetomium globosum it was less than 200 µg/mL; in the test on Aspergillus niger, less than 300 µg/mL.

Take `Clc1ccc(SC2=NCCCS2)cc1` [CAS No. 10554-28-6, 2-[(4-chlorophenyl)sulfanyl]-5,6-dihydro-4H-1,3-thiazine]: the MIC is less than 200 µg/mL with Penicillium brevicaule, less than 200 µg/mL against Chaetomium globosum and less than 400 µg/mL against Aspergillus niger.

`CCc1ccc(SC2=NCCCS2)cc1` [Example 44]: the “Minimum inhibitory concentration, Penicillium brevicaule” value in the test with Penicillium brevicaule is on record as less than 100 ppm. The “Minimum inhibitory concentration, Chaetomium globosum” value in the test on Chaetomium globosum is less than 100 ppm. Moreover, in the test on Aspergillus niger, the “Minimum inhibitory concentration, Aspergillus niger” value is on record as 100 ppm.

`Fc1cccc(SC2=NCCCS2)c1` [Example 39]: the “Minimum inhibitory concentration, Penicillium brevicaule” value in the test on Penicillium brevicaule is given as less than 100 ppm. Moreover, the “Minimum inhibitory concentration, Chaetomium globosum” value in the test on Chaetomium globosum is listed as less than 100 ppm. Also, in the test with Aspergillus niger, the “Minimum inhibitory concentration, Aspergillus niger” value worked out at 100 ppm.

As to `Oc1cccc(SC2=NCCCS2)c1` [Example 41], in the test on Penicillium brevicaule, the “Minimum inhibitory concentration, Penicillium brevicaule” value is on record as 100 ppm. Further, the “Minimum inhibitory concentration, Chaetomium globosum” value in the test on Chaetomium globosum came out at 200 ppm.

For `Cc1ccc(SC2=NCCCS2)cc1` [CAS No. 73122-44-8, 2-[(4-methylphenyl)sulfanyl]-5,6-dihydro4H-1,3-thiazine], the MIC against Penicillium brevicaule is less than 100 µg/mL; in the test with Chaetomium globosum, less than 200 µg/mL; in the test on Aspergillus niger it was less than 250 µg/mL.

Turning to `COc1ccc(SC2=NCCCS2)cc1` [CAS No. 73122-49-3, 2-[(4-methoxyphenyl)sulfanyl]-5,6-dihydro-4H-1,3-thiazine], the minimal inhibitory concentration (MIC) is less than 300 µg/mL with Penicillium brevicaule, less than 400 µg/mL with Chaetomium globosum and less than 400 µg/mL with Aspergillus niger.

With `Clc1ccc(SC2=NCCS2)cc1` [CAS No. 103482-92-4, 2-[4-chlorophenylsulfanyl]-4,5-dihydro-1,3-thiazole], the MIC against Penicillium brevicaule is 200 µg/mL (≈ 870 µM); in the test on Chaetomium globosum, less than 200 µg/mL.

For the compound `O=[N+]([O-])c1ccc(SC2=NCCCS2)cc1` [CAS No. 73122-52-8, 2-[(4-nitrophenyl)sulfanyl]-5,6-dihydro-4H-1,3-thiazine], the MIC in the test with Penicillium brevicaule was less than 200 µg/mL; against Chaetomium globosum, less than 100 µg/mL; in the test on Aspergillus niger, less than 150 µg/mL.

In the case of `Cc1ccccc1SC1=NCCCS1` [CAS No. 73122-46-0, 2-[(2-methylphenyl)sulfanyl]-5,6-dihydro-4H-1,3-thiazine], the MIC was 100 µg/mL (≈ 448 µM) in the test with Penicillium brevicaule, less than 200 µg/mL in the test on Chaetomium globosum and 200 µg/mL (≈ 895 µM) against Aspergillus niger.

`Clc1ccc(SC2=NCCCS2)c(Cl)c1` [CAS No. 73122-35-7, 2-[(2,4-dichlorophenyl)sulfanyl]-5,6-dihydro-4H-1,3-thiazine] displayed an MIC with Bacillus subtilis of less than 40 µg/mL.

`c1ccc(SC2=NCCCS2)cc1` [CAS No. 73122-32-4, 2-(phenylsulfanyl)-5,6-dihydro-4H-1,3-thiazine]: the MIC against Penicillium brevicaule is less than 200 µg/mL; against Chaetomium globosum, less than 200 µg/mL; against Aspergillus niger, less than 300 µg/mL; with Bacillus subtilis, less than 100 µg/mL.

For `CC(C)(C)c1ccc(SC2=NCCCS2)cc1` [CAS No. 73122-48-2, 2-[(4-tert-butylphenyl)sulfanyl]-5,6-dihydro-4H-1,3-thiazine], the MIC with Penicillium brevicaule is less than 100 µg/mL; in the test on Chaetomium globosum it was less than 100 µg/mL; in the test on Aspergillus niger it was 100 µg/mL (≈ 377 µM).

On to `O=[N+]([O-])c1ccc(SC2=NCCS2)cc1` [CAS No. 103482-99-1, 2-[4-nitrophenylsulfanyl]-4,5-dihydro-1,3-thiazole], for which the MIC with Penicillium brevicaule and against Chaetomium globosum was less than 200 µg/mL each time.

With `Clc1cccc(SC2=NCCS2)c1` [CAS No. 103482-93-5, 2-[3-chlorophenylsulfanyl]-4,5-dihydro-1,3-thiazole], the MIC against Penicillium brevicaule was 200 µg/mL (≈ 870 µM); against Chaetomium globosum, less than 200 µg/mL.

Take `COc1cccc(SC2=NCCCS2)c1` [Example 25]: the “Mould resistance of coating” value in test [1] is “mould-resistant”.

As to `c1cc(C2CC2)ccc1SC1=NCCCS1` [Example 49], the “Minimum inhibitory concentration, Penicillium brevicaule” value in the test on Penicillium brevicaule was less than 100 ppm. Moreover, the “Minimum inhibitory concentration, Chaetomium globosum” value in the test on Chaetomium globosum is given as less than 100 ppm. Also, in the test on Aspergillus niger, the “Minimum inhibitory concentration, Aspergillus niger” value came out at 100 ppm.

Regarding `COC(=O)C1CSC(SC(C)C)=N1` (stereo not drawn) [Example 8], the “Minimum inhibitory concentration, Bacillus subtilis” value in the test on Bacillus subtilis is less than 200 ppm.

On to `c1ccc(-c2cccc(SC3=NCCCS3)c2)cc1` [Example 48], for which the “Minimum inhibitory concentration, Penicillium brevicaule” value in the test with Penicillium brevicaule worked out at 200 ppm. The “Minimum inhibitory concentration, Chaetomium globosum” value in the test with Chaetomium globosum is reported as less than 100 ppm.

Take `COc1ccccc1SC1=NCCCS1` [Example 26]: the “Minimum inhibitory concentration, Penicillium brevicaule” value in the test with Penicillium brevicaule was found to be 100 ppm. Moreover, in the test with Chaetomium globosum, the “Minimum inhibitory concentration, Chaetomium globosum” value is on record as 200 ppm.
